# According to patent US9540299B2, “MTOR-independent activator of TFEB for autophagy enhancement and uses thereof” (Hong Kong Baptist University, priority 2015, dated 2017):
# How the values were obtained:
# [1] = system: N2a cells; test: LC3 puncta and tfLC3 autophagy flux imaging in N2a cells; type: cell-based, mouse; conditions: N2a cells transfected with tfLC3, 12 hours
# Procedure: N2a cells are treated with E4 (1 μM) in the presence or absence of CQ for 12 hours. The cells are fixed and stained with LC3 antibody (red) and DAPI (blue). Representative cells are then selected and photographed under a DeltaVision Deconvolution Microscope (GE Healthcare).
# N2a cells are transiently transfected with mRFP-GFP-LC3 (tfLC3) plasmid and then treated with E4 (1 μM) or CQ (1 μM) for 12 hours. Representative cells are then selected and photographed under a DeltaVision Deconvolution Microscope (GE Healthcare).
# After transiently knockdown the expression of TFEB, N2a cells are treated with E4 (1 μM) for 12 hours, the cells were then stained with LC3 antibody (red) and DAPI (blue).
# Cells are seeded on coverslips placed in 24-well plates. For autophagy flux assay, cells are transfected with tfLC3 plasmid for 24 hours and then treated with the indicated compounds. For other assays, at the end drug treatment, slices are fixed with 3.7% paraformaldehyde, permeabilized in 0.2% Triton X-100 and blocked with 5% BSA. After blocking, the slices are stained with anti-TFEB (1:200) or anti-LC3 (1:500) antibodies overnight at 4° C. […] Cells are visualized using the Eclipse 80i fluorescence microscope (Nikon Instruments Inc.) or the DeltaVision Deconvolution Microscope (GE Healthcare).
# [2] = molecular target: T1, 3×Flag-TFEB (Homo sapiens, UniProt P19484); test: Nuclear translocation of Flag-TFEB in Hela cells stably expressing 3×Flag-TFEB (immunostaining, western blot); type: cell-based; conditions: analogs 1 μM, curcumin 10 μM, 12 h, Torin 1 1 μM, 2 h
# T1 construct: expressed in transfected cells
# T1 sequence (P19484 1-476): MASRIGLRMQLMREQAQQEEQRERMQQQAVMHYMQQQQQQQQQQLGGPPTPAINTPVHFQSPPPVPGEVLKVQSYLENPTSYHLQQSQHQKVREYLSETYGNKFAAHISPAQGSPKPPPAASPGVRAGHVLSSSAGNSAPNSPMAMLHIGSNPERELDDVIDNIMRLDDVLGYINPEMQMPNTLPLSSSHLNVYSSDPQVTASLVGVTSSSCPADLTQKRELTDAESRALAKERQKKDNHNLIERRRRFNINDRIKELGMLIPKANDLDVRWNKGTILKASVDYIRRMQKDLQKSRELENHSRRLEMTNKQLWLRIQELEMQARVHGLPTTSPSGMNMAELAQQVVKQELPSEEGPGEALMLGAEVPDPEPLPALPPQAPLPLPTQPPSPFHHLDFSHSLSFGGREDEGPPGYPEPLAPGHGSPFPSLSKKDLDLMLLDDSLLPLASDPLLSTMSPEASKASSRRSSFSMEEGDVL
# Procedure: Cells were treated with curcumin (Cur, 10 μM), A2, B3 and C1 (1 μM) for 12 h. […] Data is quantified by ImageJ software and is presented as mean±SD of three replicates for each treatment conditions. At least 1000 cells are analyzed in each treatment group. *p<0.05 vs. the control (0.1% DMSO). FIG. 4C is a western blot showing the expression of endogenous TFEB. […] Data are presented as the mean±SD from three independent experiments. *p<0.05 vs. the control (0.1% DMSO). FIG. 4E is fluorescence images showing expression of 3×Flag-TFEB in Hela cells having treated with Cur (10 μM), A2, B3 and C1 (1 μM) for 12 h. Torin 1 (1 μM) treatment for 2 h is used as a positive control. Cells were fixed and stained with anti-Flag antibody. […] FIG. 4G is the western blot showing the expression of Flag-tagged TFEB in the cytosolic (Cyt.) and nuclear (Nuc.) fractions. ACTB and H3F3A (H3 histone, family 3A) are used as loading control of cytoplasmic and nuclear fraction, respectively. FIG. 4H is showing the relative intensity of TFEB in the cytosolic and nuclear fractions. Data are presented as the mean±SD from three independent experiments. *p<0.05 vs. the control (0.1% DMSO).
# HeLa cells stably expressing 3×Flag-TFEB are treated with curcumin analogs E2, E3 and E4 (1 μM) for 12 hours. Torin 1 (1 μM) treatment for 2 hours is used as a positive control. Cells are fixed and stained with anti-Flag antibody (red) and DAPI (blue) (FIG. 18A). TFEB translocate into nucleus are quantified (FIG. 18B). Quantification data are presented as mean±SD of three replicates in a representative experiment. At least 500 cells are analyzed in each treatment group.
# HeLa cells stably expressing 3×Flag-TFEB are treated with curcumin analogs E2, E3 and E4 (1 μM) for 12 hours. Torin 1 (1 μM) treatment for 2 hours is used as a positive control. The expression of TFEB in the cytosolic (Cyt.) and nuclear (Nuc.) fractions are determined by western blotting (FIG. 19A) and quantified (FIG. 19B). TUBB (β-tubulin) and H3F3A (H3 histone, family 3A) are used as loading control of cytoplasmic and nuclear fraction respectively. Quantification data are presented as the mean±SD from three independent experiments. *p<0.05 vs. the control (0.1% DMSO).
# N2a, Hela and Hela cells stably expressing 3×-Flag-TFEB are cultured in DMEM supplemented with 10% FBS. SH-SY5Y cells are cultured in DMEM/F12 supplemented with 10% FBS. For drug treatment, the full medium is replaced by fresh Opti-MEM I and then the compounds (in 0.1% DMSO) are added to the cells and incubated for 12 h. Inducible PC12 cells overexpressing SNCA (WT and A53T) (a kind gift from Prof. David C. Rubinsztein at Cambridge University) are grown in DMEM supplemented with 10% horse serum, 5% FBS, 50 μg/ml G418, and 150 μg/ml hygromycin B at 37° C., 10% CO2. Cells are treated with 2 μg/ml doxycycline (Dox) for 24 h to induce SNCA expression. The full medium is changed to Opti-MEM I containing the testing compounds for another 48 h.
# Cells are lysed on ice in 1× Lysis Buffer (9803, Life Technologies) with complete protease inhibitor mixture (04693124001, Roche Applied Science). Animal tissues are homogenized in nine volumes of ice-cold PBS supplemented with protease inhibitors. Cytosolic and nuclear fractions are isolated using protocols similar to those described previously. Anti-Flag or TFEB antibody is added to the whole cell lysates and Dynabeads® Protein G (10003D, Life Technologies) is used for immunoprecipitation. Proteins are separated by 10-15% SDS-PAGE, transferred, and blotted with the antibodies described. The blots are then incubated with secondary antibodies or the Clean-Blot IP Detection Reagent (21230, Thermo Scientific) at room temperature for 1 h. The protein signals are detected by ECL kit (32106, Pierce) and quantified using ImageJ software.
# Cells are seeded on coverslips placed in 24-well plates. […]
nuclear translocation of Flag-TFEB [2],Compound,"mRFP-GFP-LC3 (tfLC3) puncta (autophagy flux, autolysosome formation) [1]"
–,"CCN(CC)CCCC(C)Nc1ccnc2cc(Cl)ccc12 (centres unmarked) [CQ, chloroquine, reference compound]",induced accumulation and colocalization of both GFP and mRFP fluorescence
significantly promotes,"CCC(=O)N1CCN(c2ccc(-n3c(=O)ccc4cnc5ccc(-c6cnc7ccccc7c6)cc5c43)cc2C(F)(F)F)CC1 [Torin 1, reference compound]",–
